The values that follow are results of earlier work, collected in patent US20130224268A1, “TOPICAL DELIVERY OF HORMONAL AND NON HORMONAL NANO FORMULATIONS, METHODS OF MAKING AND USING THE SAME” (NEWGEN BIOPHARMA CORP., priority 2012, published 2013).

In the data set the test system is hydroxyproline, a major constituent amino acid in collagen. The conditions noted are these: topical estradiol treatment.

Take `C[C@]12CC[C@@H]3c4ccc(O)cc4CC[C@H]3[C@@H]1CC[C@@H]2O` [estradiol, (17β)-estra-1,3,5(10)-triene-3,17-diol]: the increase in hydroxyproline was 38%.
